# Experimental data published in the OligoGym collection.
# Oligonucleotides are given in HELM: sugar(base)linkage, 5' to 3'; d 2'-deoxyribose, r ribose, m 2'-O-methylribose, p phosphate. ss, as = sense and antisense strand
# Molecular target: TMEM63B
# Assay: reporter assay of Huesken 2005
# Conditions: siRNA
# Note: test concentration or dose not given here.
row,Substance,normalised inhibition (eCFP-eYFP dual reporter) [%]
1,RNA1{r(A)p.r(G)p.r(A)p.r(G)p.r(A)p.r(G)p.r(G)p.r(A)p.r(A)p.r(G)p.r(A)p.r(A)p.r(G)p.r(G)p.r(C)p.r(C)p.r(G)p.r(A)p.r(G)p.d(T)p.d(T)}|RNA2{r(C)p.r(U)p.r(C)p.r(G)p.r(G)p.r(C)p.r(C)p.r(U)p.r(U)p.r(C)p.r(U)p.r(U)p.r(C)p.r(C)p.r(U)p.r(C)p.r(U)p.r(C)p.r(U)p.d(G)p.d(C)}$$$RNA1{StrandType:ss}|RNA2{StrandType:as}$,49.4
2,RNA1{r(A)p.r(G)p.r(A)p.r(G)p.r(G)p.r(C)p.r(G)p.r(C)p.r(A)p.r(A)p.r(C)p.r(G)p.r(U)p.r(G)p.r(A)p.r(A)p.r(G)p.r(C)p.r(G)p.d(T)p.d(T)}|RNA2{r(C)p.r(G)p.r(C)p.r(U)p.r(U)p.r(C)p.r(A)p.r(C)p.r(G)p.r(U)p.r(U)p.r(G)p.r(C)p.r(G)p.r(C)p.r(C)p.r(U)p.r(C)p.r(U)p.d(C)p.d(G)}$$$RNA1{StrandType:ss}|RNA2{StrandType:as}$,35.7
3,RNA1{r(A)p.r(G)p.r(C)p.r(A)p.r(G)p.r(G)p.r(U)p.r(G)p.r(G)p.r(A)p.r(G)p.r(G)p.r(C)p.r(C)p.r(A)p.r(U)p.r(U)p.r(G)p.r(A)p.d(T)p.d(T)}|RNA2{r(U)p.r(C)p.r(A)p.r(A)p.r(U)p.r(G)p.r(G)p.r(C)p.r(C)p.r(U)p.r(C)p.r(C)p.r(A)p.r(C)p.r(C)p.r(U)p.r(G)p.r(C)p.r(U)p.d(C)p.d(A)}$$$RNA1{StrandType:ss}|RNA2{StrandType:as}$,77.2
4,RNA1{r(A)p.r(G)p.r(C)p.r(C)p.r(U)p.r(A)p.r(C)p.r(C)p.r(C)p.r(C)p.r(A)p.r(A)p.r(C)p.r(U)p.r(G)p.r(C)p.r(A)p.r(C)p.r(A)p.d(T)p.d(T)}|RNA2{r(U)p.r(G)p.r(U)p.r(G)p.r(C)p.r(A)p.r(G)p.r(U)p.r(U)p.r(G)p.r(G)p.r(G)p.r(G)p.r(U)p.r(A)p.r(G)p.r(G)p.r(C)p.r(U)p.d(T)p.d(C)}$$$RNA1{StrandType:ss}|RNA2{StrandType:as}$,70.7
5,RNA1{r(A)p.r(G)p.r(C)p.r(U)p.r(C)p.r(A)p.r(G)p.r(G)p.r(G)p.r(G)p.r(A)p.r(U)p.r(G)p.r(A)p.r(G)p.r(C)p.r(C)p.r(C)p.r(C)p.d(T)p.d(T)}|RNA2{r(G)p.r(G)p.r(G)p.r(G)p.r(C)p.r(U)p.r(C)p.r(A)p.r(U)p.r(C)p.r(C)p.r(C)p.r(C)p.r(U)p.r(G)p.r(A)p.r(G)p.r(C)p.r(U)p.d(C)p.d(C)}$$$RNA1{StrandType:ss}|RNA2{StrandType:as}$,43
6,RNA1{r(A)p.r(G)p.r(G)p.r(A)p.r(G)p.r(G)p.r(A)p.r(U)p.r(G)p.r(A)p.r(U)p.r(C)p.r(U)p.r(G)p.r(G)p.r(U)p.r(G)p.r(A)p.r(A)p.d(T)p.d(T)}|RNA2{r(U)p.r(U)p.r(C)p.r(A)p.r(C)p.r(C)p.r(A)p.r(G)p.r(A)p.r(U)p.r(C)p.r(A)p.r(U)p.r(C)p.r(C)p.r(U)p.r(C)p.r(C)p.r(U)p.d(T)p.d(G)}$$$RNA1{StrandType:ss}|RNA2{StrandType:as}$,77.4
7,RNA1{r(A)p.r(G)p.r(G)p.r(U)p.r(G)p.r(C)p.r(U)p.r(G)p.r(C)p.r(A)p.r(G)p.r(G)p.r(A)p.r(C)p.r(U)p.r(C)p.r(A)p.r(G)p.r(A)p.d(T)p.d(T)}|RNA2{r(U)p.r(C)p.r(U)p.r(G)p.r(A)p.r(G)p.r(U)p.r(C)p.r(C)p.r(U)p.r(G)p.r(C)p.r(A)p.r(G)p.r(C)p.r(A)p.r(C)p.r(C)p.r(U)p.d(G)p.d(A)}$$$RNA1{StrandType:ss}|RNA2{StrandType:as}$,61.8
8,RNA1{r(A)p.r(G)p.r(U)p.r(G)p.r(C)p.r(C)p.r(C)p.r(A)p.r(C)p.r(A)p.r(A)p.r(C)p.r(U)p.r(A)p.r(C)p.r(A)p.r(A)p.r(G)p.r(A)p.d(T)p.d(T)}|RNA2{r(U)p.r(C)p.r(U)p.r(U)p.r(G)p.r(U)p.r(A)p.r(G)p.r(U)p.r(U)p.r(G)p.r(U)p.r(G)p.r(G)p.r(G)p.r(C)p.r(A)p.r(C)p.r(U)p.d(G)p.d(A)}$$$RNA1{StrandType:ss}|RNA2{StrandType:as}$,81.7
